Patent US20220380341A1, “INHIBITORS OF HIV-1 NEF FOR THE TREATMENT OF HIV DISEASE” (priority 2018, published 2022)
“And” between values parts separate entries of the source, which are not always exact repeats. Identical values can stand only once. Like-named read-outs stand apart in the source and are kept apart here.

Key:
HIV-1NL4-3 = assay: HIV-1 infectivity assay in TZM-bl reporter cell line (LTR-luciferase, 48 h); format: cell-based; conditions: for inhibition at 1 µM: Human immunodeficiency virus 1, TZM-bl
Outline: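 Luciferase read-out 48 h post-infection; compound at 1 μM during HIV-1NL4-3 infection of TZM-bl cells. Percent inhibition scaled to DMSO wild-type virus (0%) and DMSO Nef-defective virus (100% of Nef-dependent effect). Viability checked separately in uninfected cells by Cell Titer Blue.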

HIV-1 NefNL4-3 = HIV-1 NefNL4-3 (Human immunodeficiency virus type 1 group M subtype B, UniProt P03406, A33V/T15A/T51N/V11I); assay: Surface plasmon resonance binding to recombinant full-length Nef (NL4-3); conditions: for RU30/RUNef (extent of binding): response units at 30 μM relative to Nef immobilized on the SPR chip; for Nef NL4-3 Binding, SPR 1:1 or 2-site fitting KD1: Table 2
TZM-bl cell line = format: cell-based
Outline: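 TZM-bl cells (HIV-1 LTR-luciferase) infected with HIV-1NL4-3 with compound at 1 μM; luciferase read 48 h later. Percent inhibition normalized to DMSO wild-type infection (0%) and Nef-defective HIV-1 infection (100% of Nef-dependent effect). Viability in uninfected TZM-bl cells by Cell Titer Blue.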

[1] = 48 h, Table 1, TZM-bl cells, 1 μM, 48 h, 100% = Nef-defective HIV-1, read-out: HIV-1 Infectivity % Inhibition Norm. to Δ-Nef @ 1 μM
[2] = Nef NL4-3 Binding, SPR 2-state fitting KD, Table 1, 2-step induced-fit model
[3] = 1.0 μM, TZM-bl reporter cell line, Table 4, read-out: % Infectivity Inhibition
[4] = KD, M, Table 4, SPR fit 2-step induced fit, KD = koff/kon × koff2/(koff2 + kon2)
[5] = Table 4, 2-step induced fit, T = 1/koff2
[6] = KD, M, Table 4, SPR fit 1:1 Langmuir, KD = koff/kon
[7] = Table 4, 1:1 Langmuir fit, T = 1/koff
[8] = read-out: Nef NL4-3 Binding, SPR 1:1 or 2-site fitting KD2, Table 1, 2-site fit, second component
[9] = 48 h, Table 2, TZM-bl cells, 1 μM, 48 h, 100% = Nef-defective HIV-1, read-out: HIV-1 Infectivity % Inhibition Norm. to Δ-Nef @ 1 μM
[10] = 1:1 Langmuir fit where the KD2 cell says '1 to 1 fitting', else 2-site fit

Row | Compound | inhibition at 1 µM (HIV-1NL4-3; [1]) [%] | Kd (HIV-1 NefNL4-3) | Percent Viability @ 1 μM (TZM-bl cells) (TZM-bl cell line; human, 1 μM) [%] | Kd (HIV-1 NefNL4-3; [2]) [nM] | inhibition at 1 µM (HIV-1NL4-3; [3]) [%] | RU30/RUNef (extent of binding) (HIV-1 NefNL4-3) | % Cell Viability (TZM-bl cell line; human, 1 μM) [%] | also measured
1 | CC(=O)N1CCC(c2c(-c3ccc(C(F)(F)F)cc3)nn(-c3nc4ccccc4[nH]3)c2O)CC1 [Compound I-713, 1-{4-[1-(1H-1,3-benzodiazol-2-yl)-5-hydroxy-3-[4-(trifluoromethyl)phenyl]-1H-pyrazol-4-yl]piperidin-1-yl}ethan-1-one] | 27.8 | 378000 nM | 76.8 |  |  |  |  | 
2 | Cn1cccc(-c2nn(-c3nc4ccccc4[nH]3)c(O)c2CCc2ccc(F)cc2)c1=O [Compound I-127, 3-[1-(1H-1,3-benzodiazol-2-y1)-4-[2-(4-fluorophenyl)ethyl]-5-hydroxy-1H-pyrazol-3-yl]-1-methyl-1,2-dihydropyridin-2-one] |  |  |  |  |  |  |  | HIV-1 Infectivity % Inhibition Norm. to Δ-Nef @ 1 μM (HIV-1NL4-3; Table 1, TZM-bl cells, 1 μM, 48 h, 100% = Nef-defective HIV-1): 2.4%; Kd (HIV-1 NefNL4-3; Table 1, 1:1 Langmuir fit where the KD2 cell says '1 to 1 fitting', else 2-site fit, read-out: Nef NL4-3 Binding, SPR 1:1 or 2-site fitting KD1): 2100 nM; Percent Viability @ 1 μM (TZM-bl cells) (TZM-bl cell line): 100.0%
3 | Oc1c(CCc2ccc(F)cc2)c(C2CCOCC2)nn1-c1nc2ccccc2[nH]1 [Compound I-114, 1-(1H-1,3-benzodiazol-2-yl)-4-[2-(4-fluorophenyl)ethyl]-3-(oxan-4-yl)-1H-pyrazol-5-ol] | 78.2 | 1770 nM and 1170 nM | 99.5 | 5560 |  |  |  | Kd (HIV-1 NefNL4-3; Nef NL4-3 Binding, SPR 1:1 or 2-site fitting KD2, Table 1, 2-site fit, second component): 4400 nM
4 | CC(C)(O)C(=O)N1CCCC1c1nn(-c2nc3ccccc3[nH]2)c(O)c1CCc1ccc(F)cc1 (stereo not shown) [Compound I-761, 1-{2-[1-(1H-1,3-benzodiazol-2-yl)-4-[2-(4-fluorophenyl)ethyl]-5-hydroxy-1H-pyrazol-3-yl]pyrrolidin-1-yl}-2-hydroxy-2-methylpropan-1-one] | -3.8 | 854 nM | 101.5 |  |  |  |  | 
5 | Oc1c(CCc2ccc(F)cc2)c(CC2CCNCC2)nn1-c1nc2ccccc2[nH]1 [Compound I-553, 1-(1H-1,3-benzodiazol-2-yl)-4-[2-(4-fluorophenyl)ethyl]-3-[(piperidin-4-yl)methyl]-1H-pyrazol-5-ol] | 74.3 | 1230 nM | 62.3 |  |  |  |  | 
6 | CC(C)(C)OC(=O)c1ccc(-c2nn(-c3nc4ccccc4[nH]3)c(O)c2CCc2ccc(F)cc2)cc1 [Compound I-208, tert-butyl 4-[1-(1H-1,3-benzodiazol-2-yl)-4-[2-(4-fluorophenyl)ethyl]-5-hydroxy-1H-pyrazol-3-yl]benzoate] | 39.2 | 13800 nM | 90.6 | 67800 | 39.2 | 1.63E- 02 | 90.6 | Kd (HIV-1 NefNL4-3; [4]): 67800 nM; T, minutes (residence time) (HIV-1 NefNL4-3; [5]): 3.95E- 02 minutes
7 | Oc1c(CC2CCOCC2)c(C2CC2)nn1-c1nc2ccccc2[nH]1 [Compound I-174, 1-(1H-1,3-benzodiazol-2-yl)-3-cyclopropyl-4-[(oxan-4-yl)methyl]-1H-pyrazol-5-ol] | 11.9 | 1370 nM | 101.5 |  | 11.9 | 3.94E- 03 | 100 | Kd (HIV-1 NefNL4-3; [6]): 1370 nM; T, minutes (residence time) (HIV-1 NefNL4-3; [7]): 6.54E + 00 minutes
8 | O=S(=O)(c1cccnc1)N1CCC(c2nn(-c3nc4ccccc4[nH]3)c(O)c2CCc2ccc(F)cc2)CC1 [Compound I-742, 1-(1H-1,3-benzodiazol-2-yl)-4-[2-(4-fluorophenyl)ethyl]-3-[1-(pyridine-3-sulfonyl)piperidin-4-yl]-1H-pyrazol-5-ol] | 125 |  | 77.3 | 0.00143 | 100 | 2.76E- 03 | 77.3 | Kd (HIV-1 NefNL4-3; [4]): 0.00143 nM; Kd (HIV-1 NefNL4-3; [8]): 56200 nM
9 | Oc1c(CC2CCOCC2)c(C2CCOCC2)nn1-c1cc(C(F)(F)F)n[nH]1 [Compound I-621, 3-(oxan-4-yl)-4-[(oxan-4-yl)methyl]-5′-(trifluoromethyl)-2′H-[1,3′-bipyrazol]-5-ol] |  |  | 95.3 |  |  |  |  | inhibition at 1 µM (HIV-1NL4-3; [9]): 42.4%; Nef NL4-3 Binding, SPR 1:1 or 2-site fitting KD1 (HIV-1 NefNL4-3; [10]): No interaction
10 | CC(C)CS(=O)(=O)N1CCC(c2nn(-c3nc4ccccc4[nH]3)c(O)c2CCc2ccc(F)cc2)CC1 [Compound I-750, 1-(1H-1,3-benzodiazol-2-yl)-4-[2-(4-fluorophenyl)ethyl]-3-[1-(2-methylpropanesulfonyl)piperidin-4-yl]-1H-pyrazol-5-ol] | 63.7 | 0.138 nM | 93.0 | 1160 |  |  |  | Kd (HIV-1 NefNL4-3; [8]): 0.572 nM
11 | CC(C)(O)C(=O)N1CCC(c2nn(-c3nc4ccccc4[nH]3)c(O)c2CCc2ccc(F)cc2)CC1 [Compound I-745, 1-{4-[1-(1H-1,3-benzodiazol-2-yl)-4-[2-(4-fluorophenyl)ethyl]-5-hydroxy-1H-pyrazol-3-yl]piperidin-1-yl}-2-hydroxy-2-methylpropan-1-one] | 23.8 | 10100 nM | 100.0 |  |  |  |  | 
12 | Oc1c(CC2CCOCC2)c(C2CC2)nn1-c1nc2cccnc2[nH]1 [Compound I-315, 3-cyclopropyl-1-{3H-imidazo[4,5-b]pyridin-2-yl}-4-[(oxan-4-yl)methyl]-1H-pyrazol-5-ol] | 28.5 | 1880 nM | 100.6 |  |  |  |  | 
13 | Oc1c(CCc2ccc(Br)cc2)c(-c2ccc(C(F)(F)F)cn2)nn1-c1nc2ccccc2[nH]1 [Compound I-147, 1-(1H-1,3-benzodiazol-2-yl)-4-[2-(4-bromophenyl)ethyl]-3-[5-(trifluoromethyl)pyridin-2-yl]-1H-pyrazol-5-ol] | 59.3 | 0.0752 nM | 97.6 |  | 59.3 | 2.11E- 03 | 97.6 | Kd (HIV-1 NefNL4-3; [6]): 0.0752 nM; T, minutes (residence time) (HIV-1 NefNL4-3; [7]): 4.30E + 04 minutes
14 | O=S(=O)(NCc1nn(-c2nc3ccccc3[nH]2)c(O)c1CCc1ccc(F)cc1)c1cccnc1 [Compound I-774, N-{[1-(1H-1,3-benzodiazol-2-yl)-4-[2-(4-fluorophenyl)ethyl]-5-hydroxy-1H-pyrazo1-3-y1]methyl}pyridine-3-sulfonamide] | -0.1 | 252 nM | 94.4 | 27.5 | 0 | 2.56E- 03 | 94.4 | Kd (HIV-1 NefNL4-3; [4]): 27.5 nM; T, minutes (residence time) (HIV-1 NefNL4-3; [5]): 1.09E + 02 minutes
15 | O=C(O)c1ccc(CCc2c(-c3ccccc3)nn(-c3cc(C(F)(F)F)n[nH]3)c2O)cc1 [Compound I-618, 4-{2-[5-hydroxy-3-phenyl-5′-(trifluoromethyl)-2′H-[1,3′-bipyrazol]-4-yl]ethyl}benzoic acid] |  |  | 93.8 |  |  |  |  | inhibition at 1 µM (HIV-1NL4-3; [9]): 0%; Nef NL4-3 Binding, SPR 1:1 or 2-site fitting KD1 (HIV-1 NefNL4-3; [10]): No interaction
16 | O=C(c1cccc(O)n1)N1CCC(Cc2nn(-c3nc4ccccc4[nH]3)c(O)c2CCc2ccc(F)cc2)CC1 [Compound I-766, 6-(4-{[1-(1H-1,3-benzodiazol-2-yl)-4-[2-(4-fluorophenyl)ethyl]-5-hydroxy-1H-pyrazol-3-yl]methyl}piperidine-1-carbonyl)pyridin-2-ol] | 46.9 | 481 nM | 99.5 |  |  |  |  | 
17 | CC(C)(C)OC(=O)N1CCC(c2nn(-c3nc4ccncc4[nH]3)c(O)c2CCc2ccc(F)cc2)CC1 [Compound I-221, tert-butyl 4-{4-[2-(4-fluorophenyl)ethyl]-5-hydroxy-1-{3H-imidazo[4,5-c]pyridin-2-yl}-1H-pyrazol-3-yl}piperidine-1-carboxylate] | 10.6 | 12800 nM | 103.1 |  |  |  |  | 
18 | Oc1c(CCc2ccc(F)cc2)c(CN2CCOCC2)nn1-c1nc2ccccc2[nH]1 [Compound I-157, 1-(1H-1,3-benzodiazol-2-yl)-4-[2-(4-fluorophenyl)ethyl]-3-[(morpholin-4-yl)methyl]-1H-pyrazol-5-ol] | 13.2 | 7800 nM | 100.7 |  |  |  |  | 
19 | CC(C)(C)OC(=O)N1CCC(c2nn(-c3nc4cc(F)c(F)cc4[nH]3)c(O)c2CCc2ccc(F)cc2)CC1 [Compound I-219, tert-butyl 4-[1-(5,6-difluoro-1H-1,3-benzodiazol-2-yl)-4-[2-(4-fluorophenyl)ethyl]-5-hydroxy-1H-pyrazol-3-yl]piperidine-1-carboxylate] | 109 |  | 79.2 | 49.3 | 100 | 4.76E- 03 | 79.2 | Kd (HIV-1 NefNL4-3; [4]): 49.3 nM; T, minutes (residence time) (HIV-1 NefNL4-3; [5]): 4.93E + 02 minutes; Kd (HIV-1 NefNL4-3; [8]): 3290 nM
